Data taken from US11365204B2, “Substituted dihydrothienopyrimidines and their use as phosphodiesterase inhibitors” (UNION therapeutics A/S, priority 2017, dated 2022).

Key:
[1] = target: human PDE4D catalytic domain (UniProt no. Q08499 [S380-L740]) (Homo sapiens (Human), UniProt Q08499); assay: PDE4 assay (TR-FRET, cAMP hydrolysis); type: biochemical; conditions: read-out: PDE4 IC50 range
How it was run: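 The human PDE4D catalytic domain (S380-L740) was incubated with unlabelled plus FAM-labelled cAMP and titrated compound, briefly. Product AMP was detected by Tb-nanoparticle TR-FRET. IC50 (nM) came from Tb-normalized signal scaled between DMSO and 10 microM reference-inhibitor controls.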

[2] = tested on: Human peripheral blood mononuclear cells (PBMC); assay: TNF-α release from LPS-stimulated PBMC; type: cell-based; conditions: Lipopolysaccharide 1 microg/ml, 18 hours, AlphaLISA, read-out: TNF-α IC50 range
How it was run: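 Thawed human PBMC in serum-free buffer with 0.5% human serum albumin were stimulated with 1 microg/ml LPS alongside titrated compound for 18 h at 37 °C. Supernatant TNFα was measured by AlphaLISA at 615 nm, and IC50 was derived relative to LPS-only and 10 microM reference PDE4 inhibitor controls.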

human PDE4D catalytic domain, sequence (Q08499 380-740): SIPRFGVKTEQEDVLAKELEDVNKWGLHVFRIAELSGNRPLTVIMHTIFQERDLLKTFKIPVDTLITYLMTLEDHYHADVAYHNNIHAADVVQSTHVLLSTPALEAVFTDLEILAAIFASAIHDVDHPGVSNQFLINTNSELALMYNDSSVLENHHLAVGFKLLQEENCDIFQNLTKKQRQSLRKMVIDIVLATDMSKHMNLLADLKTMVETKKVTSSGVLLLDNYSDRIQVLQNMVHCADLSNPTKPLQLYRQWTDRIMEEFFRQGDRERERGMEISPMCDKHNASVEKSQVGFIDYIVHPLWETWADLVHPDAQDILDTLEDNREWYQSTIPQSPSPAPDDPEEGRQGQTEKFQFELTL

In the case of `CCc1nc(C(=O)OC2CN(c3nc4c(c(N(C)C5CCOCC5)n3)[S+](O)CC4)C2)cs1` (stereo not drawn) [Example 46, [1-[4-[methyl(tetra-hydropyran-4-yl)amino]-5-oxido-6,7-dihydro-thieno[3,2-d]pyrimidin-5-ium-2-yl]azetidin-3-yl] 2-ethylthiazole-4-carboxylate], the IC50 [1] is reported as under 100 nM and the IC50 [2] is reported as under 100 nM.

`CN(C)C(=O)N1CCC(C(=O)OC2CN(c3nc4c(c(N(C)C5CCOCC5)n3)[S+](O)CC4)C2)CC1` (stereo not drawn) [Example 55, [1-[4-[methyl(tetra-hydropyran-4-yl)amino]-5-oxido-6,7-dihydro-thieno[3,2-d]pyrimidin-5-ium-2-yl]azetidin-3-yl] 1-(dimethylcarbamoyl)-piperidine-4-carboxylate] was tested, and the IC50 [1] was under 100 nM and the IC50 [2] was under 100 nM.

With `CNS(=O)(=O)c1ccc(C(=O)OC2CN(c3nc4c(c(N(C)C5CCOCC5)n3)[S+]([O-])CC4)C2)cc1` (stereo not drawn) [Example 58, [1-[4-[methyl(tetra-hydropyran-4-yl)amino]-5-oxido-6,7-dihydro-thieno[3,2-d]pyrimidin-5-ium-2-yl]azetidin-3-yl] 4-(methylsulfamoyl)-benzoate] the IC50 [1] was under 100 nM and the IC50 [2] was under 100 nM.

For `CN(c1nc(N2CC(OC(=O)C3CCSCC3)C2)nc2c1[S+](O)CC2)C1CCOCC1` (stereo not drawn) [Example 40, [1-[4-[methyl(tetra-hydropyran-4-yl)amino]-5-oxido-6,7-dihydro-thieno[3,2-d]pyrimidin-5-ium-2-yl]azetidin-3-yl] tetrahydrothiopyran-4-carboxylate], the IC50 [1] was under 100 nM and the IC50 [2] was under 100 nM.

Work on `CN(c1nc(N2CC(OC(=O)C3CCOCC3)C2)nc2c1[S+]([O-])CC2)C1CCOCC1` (stereo not drawn) [Example 23, [1-[4-[methyl(tetra-hydropyran-4-yl)amino]-5-oxido-6,7-dihydro-thieno[3,2-d]pyrimidin-5-ium-2-yl]azetidin-3-yl] tetrahydropyran-4-carboxylate] yielded an IC50 [1] of under 100 nM and an IC50 [2] of under 100 nM.

In the case of `CCS(=O)(=O)c1cccc(C(=O)OC2CN(c3nc4c(c(N(C)C5CCOCC5)n3)[S+]([O-])CC4)C2)c1` (stereo not drawn) [Example 56, [1-[4-[methyl(tetra-hydropyran-4-yl)amino]-5-oxido-6,7-dihydro-thieno[3,2-d]pyrimidin-5-ium-2-yl]azetidin-3-yl] 3-ethylsulfonylbenzoate], the IC50 [1] is reported as under 100 nM and the IC50 [2] is reported as under 100 nM.

`CC(C)S(=O)(=O)c1cccc(C(=O)OC2CN(c3nc4c(c(N(C)C5CCOCC5)n3)[S+](O)CC4)C2)c1` (stereo not drawn) [Example 59, [1-[4-[methyl(tetra-hydropyran-4-yl)amino]-5-oxido-6,7-dihydro-thieno[3,2-d]pyrimidin-5-ium-2-yl]azetidin-3-yl] 3-isopropylsulfonyl-benzoate] showed an IC50 [1] of under 100 nM and an IC50 [2] of under 100 nM.

`CC(=O)N1CC[C@@H](Nc2nc(N3CC(OC(=O)C4CCOCC4)C3)nc3c2[S@+](O)CC3)C1` [Example 75, [1-[4-[[(3R)-1-acetyl-pyrrolidin-3-yl]amino]-5-oxido-6,7-dihydro-thieno[3,2-d]pyrimidin-5-ium-2-yl]azetidin-3-yl] tetrahydropyran-4-carboxylate] gave an IC50 [1] of over 500 nM and an IC50 [2] of over 500 nM.

`CN(c1nc(N2CC(OC(=O)c3ccns3)C2)nc2c1[S+]([O-])CC2)C1CCOCC1` (stereo not drawn) [Example 22, [1-[4-[methyl(tetra-hydropyran-4-yl)amino]-5-oxido-6,7-dihydro-thieno[3,2-d]pyrimidin-5-ium-2-yl]azetidin-3-yl] isothiazole-5-carboxylate] was tested, and the IC50 [1] was under 100 nM and the IC50 [2] was under 100 nM.
